Laboratory results reported in publication PMC9525273 (Nature Communications, 2022).
Values joined by “and” are separate entries in the source; they are usually repeats but may differ in a detail not shown here. Identical values can stand only once. “Also recorded” adds a separate entry of the source. Like-named read-outs stand apart in the source and are kept apart here.

Tests used:
Type in all cases: cell-based, Plasmodium falciparum
NF54^G358S-2 parasites = test: P. falciparum proliferation assay (72 h, flow cytometry, SYBR Green I/MitoTracker); settings: for FC (IC50) / FC (IC90): NF54G358S-2 compared to NF54WT
Experimental: (§1) For the NF54-based lines and Dd2-B2-PfATP4^G358S and its parent, assays were initiated with cultures containing predominantly ring-stage parasites with a parasitaemia of 0.3% and a haematocrit of 1%. All assays using NF54 were performed in culture media containing 10% O + human serum. The duration of the assays was 72 h and the concentration of DMSO was <0.5% (v/v). Serial dilutions of the test compounds were performed using a Tecan D300e digital dispenser, with parasite cultures added manually. Parasite survival was assessed by flow cytometry on an Intellicyt iQue3 (Essen Bioscience), with 1× SYBR Green I (Invitrogen) and 200 nM MitoTracker Deep Red FM (Invitrogen) used to stain the nucleus and the mitochondria in live parasites, respectively. The gating strategy used to quantify parasite survival, performed using FlowJo version 10 (FlowJo LLC.), is illustrated in Supplementary Fig. 9. IC50 and IC90 values were calculated by linear interpolation of the dose-response data.

NF54^G358S-1 parasites = test: as above; settings: for FC (IC50) / FC (IC90): NF54G358S-1 compared to NF54WT
Experimental: as §1

NF54^CTL parasites = test: as above; settings: for FC (IC50) / FC (IC90): NF54CTL compared to NF54WT
Experimental: as §1

NF54^WT parasites = test: microbe, parasite or virus in culture; settings: for FC (IC50) / FC (IC90): NF54WT, reference line
Experimental: as §1

[1] = tested on: gene-edited NF54 lines (NF54^CTL, NF54^G358S-1, NF54^G358S-2); test: P. falciparum proliferation assay, statements on several edited NF54 lines; settings: all edited NF54 lines, including NF54CTL, vs NF54WT
Experimental: as §1, with “Two types of parasite proliferation assays were employed in this study, with both yielding highly consistent results. For” for “For”

[2] = tested on: parasite lines with a G358S mutation in PfATP4; test: P. falciparum proliferation assays, statements on all lines with the G358S mutation; settings: G358S lines vs PfATP4 wild-type controls
Experimental: as §1, with “Two types of parasite proliferation assays were employed in this study, with both yielding highly consistent results. For” for “For”
(§2) For experiments with all other parasites, the effects of compounds of interest on parasite proliferation was measured in 96-well plates containing serial dilutions of the compounds in culture medium, with a fluorescent DNA-intercalating dye used to detect surviving parasites. The assays were initiated with erythrocytes infected with predominantly ring-stage parasites, and the starting parasitaemia and haematocrit were both 1%. […] Fluorescence was measured using a FLUOstar OPTIMA plate reader (BMG LABTECH), with OPTIMA version 2.20R2 and MARS Data Analysis Software version 3.01 R2 (BMG LABTECH).

Dd2-Polδ parasites = test: P. falciparum proliferation assay (72 h, fluorescent DNA-intercalating dye)
Experimental: (§3) For experiments with all other parasites, the effects of compounds of interest on parasite proliferation was measured in 96-well plates containing serial dilutions of the compounds in culture medium, with a fluorescent DNA-intercalating dye used to detect surviving parasites. The assays were initiated with erythrocytes infected with predominantly ring-stage parasites, and the starting parasitaemia and haematocrit were both 1%.

[3] = tested on: Dd2-Polδ-PfATP4^G358S parasites; test: as above
Experimental: as §3

[4] = tested on: MMV665949-selected Culture 1 (from Dd2-Polδ; not cloned); test: as above; settings: n = 4
Experimental: as §2

[5] = NF54G358S-2 parasites, individual experiments, read-out: IC50 values
[6] = NF54G358S-2 parasites, individual experiments, read-out: IC90 values
[7] = Plasmodium falciparum, NF54, NF54G358S-2 parasites, individual experiments, read-out: IC50 values
[8] = Plasmodium falciparum, NF54, NF54G358S-2 parasites, individual experiments, read-out: IC90 values
[9] = Plasmodium falciparum, NF54, NF54G358S-2 parasites, mean of the experiments, read-out: IC50 values, MEAN
[10] = Plasmodium falciparum, NF54, NF54G358S-2 parasites, mean of the experiments, read-out: IC90 values, MEAN
[11] = NF54G358S-1 parasites, individual experiments, read-out: IC50 values
[12] = NF54G358S-1 parasites, individual experiments, read-out: IC90 values
[13] = Plasmodium falciparum, NF54, NF54G358S-1 parasites, individual experiments, read-out: IC50 values
[14] = Plasmodium falciparum, NF54, NF54G358S-1 parasites, individual experiments, read-out: IC90 values
[15] = Plasmodium falciparum, NF54, NF54G358S-1 parasites, mean of the experiments, read-out: IC50 values, MEAN
[16] = Plasmodium falciparum, NF54, NF54G358S-1 parasites, mean of the experiments, read-out: IC90 values, MEAN
[17] = NF54CTL parasites, individual experiments, read-out: IC50 values
[18] = NF54CTL parasites, individual experiments, read-out: IC90 values
[19] = Plasmodium falciparum, NF54, NF54CTL parasites, individual experiments, read-out: IC50 values
[20] = Plasmodium falciparum, NF54, NF54CTL parasites, individual experiments, read-out: IC90 values
[21] = Plasmodium falciparum, NF54, NF54CTL parasites, mean of the experiments, read-out: IC50 values, MEAN
[22] = Plasmodium falciparum, NF54, NF54CTL parasites, mean of the experiments, read-out: IC90 values, MEAN
[23] = NF54WT parasites, individual experiments, read-out: IC50 values
[24] = NF54WT parasites, individual experiments, read-out: IC90 values
[25] = Plasmodium falciparum, NF54, NF54WT parasites, mean of the experiments, read-out: IC50 values, MEAN
[26] = Plasmodium falciparum, NF54, NF54WT parasites, mean of the experiments, read-out: IC90 values, MEAN

For `COc1nc(C(C)C)ccc1-c1cnc2sc(N3CCC(O)(CN)CC3)nn12` [INE963], the “FC (IC50)” value (NF54^G358S-2 parasites) was 1.4 fold, the “FC (IC90)” value (NF54^G358S-2 parasites) was 1.4 fold and the IC50 (NF54^G358S-2 parasites; [5]) was 1.11 nM and 0.93 nM and 1.44 nM. For the same molecule, the IC90 (NF54^G358S-2 parasites; [6]) was 2.37 nM and 2.77 nM and 3.43 nM, the IC50 (NF54^G358S-2 parasites; [7]) was 1.1 nM and the IC90 (NF54^G358S-2 parasites; [8]) was 2.11 nM. For the same molecule, the IC50 (NF54^G358S-2 parasites; [9]) was 1.15 nM, the IC90 (NF54^G358S-2 parasites; [10]) was 2.7 nM and the “FC (IC50)” value (NF54^G358S-1 parasites) was 1.4 fold. The “FC (IC90)” value (NF54^G358S-1 parasites) was 1.4 fold, the IC50 (NF54^G358S-1 parasites; [11]) was 1.09 nM and 1.1 nM and 1.41 nM and the IC90 (NF54^G358S-1 parasites; [12]) was 2.82 nM and 2.85 nM and 3.37 nM. For the same molecule, the IC50 (NF54^G358S-1 parasites; [13]) was 0.91 nM, the IC90 (NF54^G358S-1 parasites; [14]) was 1.87 nM and the IC50 (NF54^G358S-1 parasites; [15]) was 1.13 nM. For the same molecule, the IC90 (NF54^G358S-1 parasites; [16]) was 2.7 nM, the “FC (IC50)” value (NF54^CTL parasites) was 1.5 fold and the “FC (IC90)” value (NF54^CTL parasites) was 1.3 fold. The IC50 (NF54^CTL parasites; [17]) was 1.15 nM and 1.14 nM and 1.42 nM, the IC90 (NF54^CTL parasites; [18]) was 2.46 nM and 2.4 nM and 3.34 nM and the IC50 (NF54^CTL parasites; [19]) was 1.02 nM. The IC90 (NF54^CTL parasites; [20]) was 1.87 nM, the IC50 (NF54^CTL parasites; [21]) was 1.18 nM and the IC90 (NF54^CTL parasites; [22]) was 2.5 nM. The IC50 (NF54^CTL parasites; Plasmodium falciparum, NF54, NF54CTL, 10% human serum, read-out: IC50 ± SEM) was 1.2 ± 0.1 nM, the IC50 (NF54^WT parasites; [23]) was 0.63 nM and 0.74 nM and 1.17 nM and the IC90 (NF54^WT parasites; [24]) was 1.68 nM and 1.36 nM and 1.75 nM and 2.98 nM. For the same molecule, the “FC (IC50)” value (NF54^WT parasites) was 1.0 fold, the “FC (IC90)” value (NF54^WT parasites) was 1.0 fold and the IC50 (NF54^WT parasites; Plasmodium falciparum, NF54, NF54WT parasites, individual experiments, read-out: IC50 values) was 0.7 nM. For the same molecule, the IC50 (NF54^WT parasites; [25]) was 0.81 nM, the IC90 (NF54^WT parasites; [26]) was 1.9 nM and the IC50 (NF54^WT parasites; Plasmodium falciparum, NF54, NF54WT, 10% human serum, read-out: IC50 ± SEM) was 0.8 ± 0.1 nM. For the same molecule, the “fold increase in IC50 value” [1] was 1.4-1.5 fold and the “effect of the G358S mutation in PfATP4 on parasite susceptibility” value [2] was “no impact; also recorded: no effect”.

In the case of `Oc1ccc(C(=C(Cl)Cl)c2ccc(O)cc2)cc1` [MMV665949], the IC50 (Dd2-Polδ parasites; Dd2-Polδ, Supplementary Table 1, Set 2, read-out: Mean IC50 value ± SEM for growth inhibition) is reported as 4270 nM, the IC50 (Dd2-Polδ parasites; parental Dd2-Polδ, paired with MMV665949-selected Culture 1, n = 4, read-out: IC50) is reported as 4300 ± 700 nM and the “IC50 fold higher than that of Dd2-Polδ parent” value ([3]; Dd2-Polδ-PfATP4G358S vs Dd2-Polδ, mean ± SEM) is reported as “no significant change”. For the same molecule, the IC50 ([3]; Dd2-Polδ-PfATP4G358S, Supplementary Table 1, Set 2, read-out: Mean IC50 value ± SEM for growth inhibition) was 4870 ± 880 nM, the “IC50 fold higher than for parental Dd2-Polδ” value ([4]; MMV665949-selected Culture 1, paired experiments) was 10.7 ± 2.0 fold and the IC50 ([4]; MMV665949-selected Culture 1, mean ± SEM, read-out: IC50) was 44000 ± 7000 nM.

For `COc1ccc2nc3cc(Cl)ccc3c(Nc3cc(CN4CCCC4)c(O)c(CN4CCCC4)c3)c2n1` [Pyronaridine], the “FC (IC50)” value (NF54^G358S-2 parasites) was 1.2 fold, the “FC (IC90)” value (NF54^G358S-2 parasites) was 1.1 fold and the IC50 (NF54^G358S-2 parasites; [5]) was 1.86 nM and 1.73 nM and 2.02 nM. The IC90 (NF54^G358S-2 parasites; [6]) was 2.89 nM and 2.85 nM and 2.91 nM, the IC90 (NF54^G358S-2 parasites; Plasmodium falciparum, NF54, NF54G358S-2, 10% human serum, read-out: IC90 ± SEM) was 2.8 ± 0.1 nM and the IC50 (NF54^G358S-2 parasites; [7]) was 1.25 nM. For the same molecule, the IC90 (NF54^G358S-2 parasites; [8]) was 2.63 nM, the IC50 (NF54^G358S-2 parasites; [9]) was 1.7 nM and the IC90 (NF54^G358S-2 parasites; [10]) was 2.82 nM. The “FC (IC50)” value (NF54^G358S-1 parasites) was 1.3 fold, the “FC (IC90)” value (NF54^G358S-1 parasites) was 1.1 fold and the IC50 (NF54^G358S-1 parasites; [11]) was 1.77 nM and 2.02 nM and 2.17 nM. The IC90 (NF54^G358S-1 parasites; [12]) was 2.9 nM and 3.07 nM and 3.12 nM, the IC50 (NF54^G358S-1 parasites; [13]) was 1.24 nM and the IC90 (NF54^G358S-1 parasites; [14]) was 2.64 nM. The IC50 (NF54^G358S-1 parasites; [15]) was 1.8 nM, the IC90 (NF54^G358S-1 parasites; [16]) was 2.93 nM and the “FC (IC50)” value (NF54^CTL parasites) was 1.2 fold. The “FC (IC90)” value (NF54^CTL parasites) was 1.1 fold, the IC50 (NF54^CTL parasites; [17]) was 1.43 nM and 1.8 nM and 1.81 nM and the IC90 (NF54^CTL parasites; [18]) was 2.8 nM and 2.91 nM. The IC50 (NF54^CTL parasites; [19]) was 1.47 nM, the IC90 (NF54^CTL parasites; [20]) was 2.85 nM and the IC50 (NF54^CTL parasites; [21]) was 1.6 nM. For the same molecule, the IC90 (NF54^CTL parasites; [22]) was 2.86 nM, the IC90 (NF54^CTL parasites; Plasmodium falciparum, NF54, NF54CTL, 10% human serum, read-out: IC90 ± SEM) was 2.9 ± 0.02 nM and the IC50 (NF54^WT parasites; [23]) was 0.91 nM and 1.08 nM and 1.42 nM and 2.14 nM. For the same molecule, the IC90 (NF54^WT parasites; [24]) was 1.44 nM and 2.14 nM and 2.78 nM and 4.07 nM, the “FC (IC50)” value (NF54^WT parasites) was 1.0 fold and the “FC (IC90)” value (NF54^WT parasites) was 1.0 fold. The IC50 (NF54^WT parasites; [25]) was 1.4 nM, the IC90 (NF54^WT parasites; [26]) was 2.61 nM and the IC90 (NF54^WT parasites; Plasmodium falciparum, NF54, NF54WT, 10% human serum, read-out: IC90 ± SEM) was 2.6 ± 0.6 nM. The “effect of the G358S mutation in PfATP4 on parasite susceptibility” value [2] was “no effect”.
